What is called half-life is how long it takes for the measured level to halve. Low readings indicate rapid decline, high ones slow decline. What is called pIC50 is the IC50 on a negative log10 scale, so that one unit is a factor of ten. A lower pIC50 goes with a high IC50.

Results on three molecules are retold here after ChEMBL document CHEMBL1124124, “Synthesis and interaction with uridine phosphorylase of 5'-deoxy-4',5-difluorouridine, a new prodrug of 5-fluorouracil” (J Med Chem, 1988).

pIC50: −log10 of the molar value.

Data set [1] in a line: Half life at pH 7.5. It counts as ADME. Conditions: buffer.
The test system of a further data set is L1210. Kind of data set: Inhibition of cell growth of L1210 mouse Leukemia cells. Type of data set: functional, cell-based.
Data set [2] in a line: Half life at pH 1. It counts as ADME. Conditions: buffer.
A short description of data set [3]: Half life at pH 7.5; Not detectable hydrolysis after 7 days. Conditions: buffer, pH 7.5, 168 h. Type of data set: ADME.

On to `C[C@@]1(F)OC(n2cc(F)c(=O)[nH]c2=O)[C@H](O)[C@@H]1O` (some centres not stated), for which the values for the half-life in data set [1] and in data set [2] were 12 h and 0.5 h, respectively. This molecule also showed a negative-log IC50 (pIC50) in the data set on L1210 of 6.52.

In the data set on L1210, `C[C@H]1O[C@@H](n2cc(F)c(=O)[nH]c2=O)[C@H](O)[C@@H]1O` [DOXIFLURIDINE] had a pIC50 of 5.52. The molecule also showed a half-life in data set [2] of 250 h. In data set [3], the T1/2 entry is “No detectable hydrolysis”.

For `O=c1[nH]cc(F)c(=O)[nH]1` [FLUOROURACIL], in the data set with L1210, the negative logarithm of the IC50 (pIC50) is 6.52.
